The values below come from patent publication US20030109567A1, “Novel angiogenesis inhibitor” (RIKEN, priority 2001, published 2003).

This series can be described thus: Solubility (physicochemical properties). On the procedure: The syrup was dissolved in chloroform 10 ml and applied to a silica gel column charged with chloroform (4 cm diameter, 60 cm length). Initially, elution was performed with chloroform 500 ml, then with each 500 ml of a chloroform/methanol solution having a successively changed mixing ratio (100:0, 100:2, 50:1, 20:1, 10:1, 5:1, 1:1). The compound of the present invention, RKB-3134A, was eluted in a fraction with the chloroform/methanol solution (50:1). The fraction was concentrated under reduced pressure to give a brown syrup 1.4 g. Then, the brown syrup 1.4 g was dissolved in a methanol/acetonitrile solution (1:1, 14 ml) and made into aliquots, and purified by high performance liquid chromatography (acetonitrile : water=2:8→acetonitrile : water=1:1; linear gradient (30 minutes), flow rate 9.0 ml/min) using a reverse phase ODS column (2 cm diameter, 25 cm length, PEGASIL ODS, Senshu Kagaku Co.) to give RKB-3134A. Recrystallization was further carried out from a mixed solvent of hexane/ethyl acetate/methanol to give a pure RKB-3134A (90 mg) as pale yellow powder. Physicochemical properties of RKB-3134A are shown below.
Insoluble in n-hexane or water.

As to `CC/C=C/C=C/C1=C(C)C(=O)C2(O1)C(=O)NC(O)(Cc1ccccc1)C2O` (centres unmarked) [RKB-3134A], the “Solubility in methanol, acetone, or dimethyl sulfoxide” value (solvent: methanol, acetone, or dimethyl sulfoxide) is recorded as “easily soluble”. Also, for the setting “solvent: n-hexane or water”, the “Solubility in n-hexane or water” value is on record as “Insoluble”.
